Reference: ChEMBL document CHEMBL4033677, “Design and synthesis of pyrazolo[3,4-d]pyrimidines: Nitric oxide releasing compounds targeting hepatocellular carcinoma” (Bioorg Med Chem, 2017)

What was measured:
Assay type in all cases: functional
COLO 205 = assay: Growth inhibition of human COLO205 cells assessed as cell growth at 10^-5 M incubated for 48 hrs by sulforhodamine B assay relative to control; conditions: COLO 205, 48 h, read-out: Activity
SNB-19 = assay: Growth inhibition of human SNB19 cells assessed as cell growth at 10^-5 M incubated for 48 hrs by sulforhodamine B assay relative to control; conditions: SNB-19, 48 h, read-out: Activity
HCT-116 = assay: Growth inhibition of human HCT116 cells assessed as cell growth at 10^-5 M incubated for 48 hrs by sulforhodamine B assay relative to control; conditions: HCT-116, 48 h, read-out: Activity
CAKI-1 = assay: Growth inhibition of human Caki1 cells assessed as cell growth at 10^-5 M incubated for 48 hrs by sulforhodamine B assay relative to control; conditions: CAKI-1, 48 h, read-out: Activity
IGROV-1 = assay: Growth inhibition of human IGROV1 cells assessed as cell growth at 10^-5 M incubated for 48 hrs by sulforhodamine B assay relative to control; conditions: IGROV-1, 48 h, read-out: Activity
OVCAR-3 = assay: Growth inhibition of human OVCAR3 cells assessed as cell growth at 10^-5 M incubated for 48 hrs by sulforhodamine B assay relative to control; conditions: OVCAR-3, 48 h, read-out: Activity
T47D = assay: Growth inhibition of human T47D cells assessed as cell growth at 10^-5 M incubated for 48 hrs by sulforhodamine B assay relative to control; conditions: read-out: Activity
Malme-3M = assay: Growth inhibition of human MALME-3M cells assessed as cell growth at 10^-5 M incubated for 48 hrs by sulforhodamine B assay relative to control; conditions: read-out: Activity
SN12C = assay: Growth inhibition of human SN12C cells assessed as cell growth at 10^-5 M incubated for 48 hrs by sulforhodamine B assay relative to control; conditions: read-out: Activity
LOX IMVI = assay: Growth inhibition of human LOXIMVI cells assessed as cell growth at 10^-5 M incubated for 48 hrs by sulforhodamine B assay relative to control; conditions: read-out: Activity
SF-268 = assay: Growth inhibition of human SF268 cells assessed as cell growth at 10^-5 M incubated for 48 hrs by sulforhodamine B assay relative to control; conditions: SF-268, 48 h, read-out: Activity
ACHN = assay: Growth inhibition of human ACHN cells assessed as cell growth at 10^-5 M incubated for 48 hrs by sulforhodamine B assay relative to control; conditions: read-out: Activity
SF-539 = assay: Growth inhibition of human SF539 cells assessed as cell growth at 10^-5 M incubated for 48 hrs by sulforhodamine B assay relative to control; conditions: SF-539, 48 h, read-out: Activity
HT-29 = assay: Growth inhibition of human HT-29 cells assessed as cell growth at 10^-5 M incubated for 48 hrs by sulforhodamine B assay relative to control; conditions: HT-29, 48 h, read-out: Activity
U-251 = assay: Growth inhibition of human U251 cells assessed as cell growth at 10^-5 M incubated for 48 hrs by sulforhodamine B assay relative to control; conditions: U-251, 48 h, read-out: Activity
KM12 = assay: Growth inhibition of human KM12 cells assessed as cell growth at 10^-5 M incubated for 48 hrs by sulforhodamine B assay relative to control; conditions: KM12, 48 h, read-out: Activity
EKVX = assay: Growth inhibition of human EKVX cells assessed as cell growth at 10^-5 M incubated for 48 hrs by sulforhodamine B assay relative to control; conditions: read-out: Activity
NCI-H522 = assay: Growth inhibition of human NCI-H522 cells assessed as cell growth at 10^-5 M incubated for 48 hrs by sulforhodamine B assay relative to control; conditions: NCI-H522, 48 h, read-out: Activity
SW-620 = assay: Growth inhibition of human SW620 cells assessed as cell growth at 10^-5 M incubated for 48 hrs by sulforhodamine B assay relative to control; conditions: SW-620, 48 h, read-out: Activity
SF-295 = assay: Growth inhibition of human SF295 cells assessed as cell growth at 10^-5 M incubated for 48 hrs by sulforhodamine B assay relative to control; conditions: SF-295, 48 h, read-out: Activity
RXF 393 = assay: Growth inhibition of human RXF393 cells assessed as cell growth at 10^-5 M incubated for 48 hrs by sulforhodamine B assay relative to control; conditions: RXF 393, 48 h, read-out: Activity
MDA-MB-231 = assay: Growth inhibition of human MDA-MB-231 cells assessed as cell growth at 10^-5 M incubated for 48 hrs by sulforhodamine B assay relative to control; conditions: MDA-MB-231, 48 h, read-out: Activity
K562 = assay: Growth inhibition of human K562 cells assessed as cell growth at 10^-5 M incubated for 48 hrs by sulforhodamine B assay relative to control; conditions: K562, 48 h, read-out: Activity
HCT-15 = assay: Growth inhibition of human HCT15 cells assessed as cell growth at 10^-5 M incubated for 48 hrs by sulforhodamine B assay relative to control; conditions: HCT-15, 48 h, read-out: Activity
HCC 2998 = assay: Growth inhibition of human HCC2998 cells assessed as cell growth at 10^-5 M incubated for 48 hrs by sulforhodamine B assay relative to control; conditions: HCC 2998, 48 h, read-out: Activity
SK-MEL-5 = assay: Growth inhibition of human SK-MEL-5 cells assessed as cell growth at 10^-5 M incubated for 48 hrs by sulforhodamine B assay relative to control; conditions: SK-MEL-5, 48 h, read-out: Activity
OVCAR-8 = assay: Growth inhibition of human OVCAR8 cells assessed as cell growth at 10^-5 M incubated for 48 hrs by sulforhodamine B assay relative to control; conditions: OVCAR-8, 48 h, read-out: Activity
786-0 = assay: Growth inhibition of human 786-0 cells assessed as cell growth at 10^-5 M incubated for 48 hrs by sulforhodamine B assay relative to control; conditions: 786-0, 48 h, read-out: Activity
SK-MEL-2 = assay: Growth inhibition of human SK-MEL-2 cells assessed as cell growth at 10^-5 M incubated for 48 hrs by sulforhodamine B assay relative to control; conditions: SK-MEL-2, 48 h, read-out: Activity
NCI/ADR-RES = assay: Growth inhibition of human NCI/ADR-RES cells assessed as cell growth at 10^-5 M incubated for 48 hrs by sulforhodamine B assay relative to control; conditions: read-out: Activity
UO-31 = assay: Growth inhibition of human UO31 cells assessed as cell growth at 10^-5 M incubated for 48 hrs by sulforhodamine B assay relative to control; conditions: UO-31, 48 h, read-out: Activity
NCI-H460 = assay: Growth inhibition of human NCI-H460 cells assessed as cell growth at 10^-5 M incubated for 48 hrs by sulforhodamine B assay relative to control; conditions: NCI-H460, 48 h, read-out: Activity
SR = assay: Growth inhibition of human SR cells assessed as cell growth at 10^-5 M incubated for 48 hrs by sulforhodamine B assay relative to control; conditions: read-out: Activity

Cc1nn(-c2ccccc2)c2ncnc(Nc3ccc(OCCCBr)cc3)c12
growth at 10 µM (COLO 205): 105% | growth at 10 µM (SNB-19): 94.7% | growth at 10 µM (HCT-116): 81.5% | growth at 10 µM (CAKI-1): 92.1% | growth at 10 µM (IGROV-1): 105% | growth at 10 µM (OVCAR-3): 103% | growth at 10 µM (T47D): 84.8% | growth at 10 µM (Malme-3M): 106% | growth at 10 µM (SN12C): 95.2% | growth at 10 µM (LOX IMVI): 106% | growth at 10 µM (SF-268): 103% | growth at 10 µM (ACHN): 109% | growth at 10 µM (SF-539): 96% | growth at 10 µM (HT-29): 58.2% | growth at 10 µM (U-251): 89% | growth at 10 µM (KM12): 99.6% | growth at 10 µM (EKVX): 92.5% | growth at 10 µM (NCI-H522): 45.6% | growth at 10 µM (SW-620): 108% | growth at 10 µM (SF-295): 93% | growth at 10 µM (RXF 393): 102% | growth at 10 µM (MDA-MB-231): 87.4% | growth at 10 µM (K562): 100% | growth at 10 µM (HCT-15): 90% | growth at 10 µM (HCC 2998): 107% | growth at 10 µM (SK-MEL-5): 86.6% | growth at 10 µM (OVCAR-8): 94.2% | growth at 10 µM (786-0): 64.3% | growth at 10 µM (SK-MEL-2): 84% | growth at 10 µM (NCI/ADR-RES): 102% | growth at 10 µM (UO-31): 92.4% | growth at 10 µM (NCI-H460): 123% | growth at 10 µM (SR): 81.4%

Cc1nc(Nc2ccc(OCCCBr)cc2)c2cnn(-c3ccccc3)c2n1
growth at 10 µM (COLO 205): 106% | growth at 10 µM (SNB-19): 92.6% | growth at 10 µM (HCT-116): 67.2% | growth at 10 µM (CAKI-1): 93.6% | growth at 10 µM (IGROV-1): 90.3% | growth at 10 µM (OVCAR-3): 106% | growth at 10 µM (T47D): 83.6% | growth at 10 µM (Malme-3M): 98.2% | growth at 10 µM (SN12C): 91.8% | growth at 10 µM (LOX IMVI): 94.6% | growth at 10 µM (SF-268): 86.9% | growth at 10 µM (ACHN): 103% | growth at 10 µM (SF-539): 92.5% | growth at 10 µM (HT-29): 96.6% | growth at 10 µM (U-251): 81.4% | growth at 10 µM (KM12): 98.3% | growth at 10 µM (EKVX): 76.5% | growth at 10 µM (NCI-H522): 81.6% | growth at 10 µM (SW-620): 93.3% | growth at 10 µM (SF-295): 101% | growth at 10 µM (RXF 393): 104% | growth at 10 µM (MDA-MB-231): 80.4% | growth at 10 µM (K562): 102% | growth at 10 µM (HCT-15): 99.2% | growth at 10 µM (HCC 2998): 103% | growth at 10 µM (SK-MEL-5): 96.2% | growth at 10 µM (OVCAR-8): 75.7% | growth at 10 µM (786-0): 91.6% | growth at 10 µM (SK-MEL-2): 98% | growth at 10 µM (NCI/ADR-RES): 92.1% | growth at 10 µM (UO-31): 88.2% | growth at 10 µM (NCI-H460): 95.1% | growth at 10 µM (SR): 85.2%

Cc1nc(Nc2ccc(OCCCBr)cc2)c2c(C)nn(-c3ccccc3)c2n1
growth at 10 µM (COLO 205): 108% | growth at 10 µM (SNB-19): 94.5% | growth at 10 µM (HCT-116): 81.3% | growth at 10 µM (CAKI-1): 94.8% | growth at 10 µM (IGROV-1): 91.8% | growth at 10 µM (OVCAR-3): 107% | growth at 10 µM (T47D): 83.5% | growth at 10 µM (Malme-3M): 107% | growth at 10 µM (SN12C): 78.8% | growth at 10 µM (LOX IMVI): 98.3% | growth at 10 µM (SF-268): 93.8% | growth at 10 µM (ACHN): 108% | growth at 10 µM (SF-539): 98.3% | growth at 10 µM (HT-29): 93.7% | growth at 10 µM (U-251): 90.5% | growth at 10 µM (KM12): 96.6% | growth at 10 µM (EKVX): 90.9% | growth at 10 µM (NCI-H522): 76.1% | growth at 10 µM (SW-620): 111% | growth at 10 µM (SF-295): 96.3% | growth at 10 µM (RXF 393): 97.9% | growth at 10 µM (MDA-MB-231): 94% | growth at 10 µM (K562): 100% | growth at 10 µM (HCT-15): 94% | growth at 10 µM (HCC 2998): 107% | growth at 10 µM (SK-MEL-5): 96.1% | growth at 10 µM (OVCAR-8): 94.6% | growth at 10 µM (786-0): 83.6% | growth at 10 µM (SK-MEL-2): 91.5% | growth at 10 µM (NCI/ADR-RES): 107% | growth at 10 µM (UO-31): 95.7% | growth at 10 µM (NCI-H460): 113% | growth at 10 µM (SR): 74.6%

BrCCCOc1ccc(Nc2ncnc3c2cnn3-c2ccccc2)cc1
growth at 10 µM (COLO 205): 103% | growth at 10 µM (SNB-19): 97.7% | growth at 10 µM (HCT-116): 96.7% | growth at 10 µM (CAKI-1): 98.2% | growth at 10 µM (IGROV-1): 80.5% | growth at 10 µM (OVCAR-3): 97% | growth at 10 µM (T47D): 84.2% | growth at 10 µM (Malme-3M): 112% | growth at 10 µM (SN12C): 94% | growth at 10 µM (LOX IMVI): 98.1% | growth at 10 µM (SF-268): 86% | growth at 10 µM (ACHN): 96.5% | growth at 10 µM (SF-539): 92.5% | growth at 10 µM (HT-29): 99.4% | growth at 10 µM (U-251): 94.6% | growth at 10 µM (KM12): 88.9% | growth at 10 µM (EKVX): 83.2% | growth at 10 µM (NCI-H522): 78.4% | growth at 10 µM (SW-620): 114% | growth at 10 µM (SF-295): 107% | growth at 10 µM (RXF 393): 105% | growth at 10 µM (MDA-MB-231): 96.9% | growth at 10 µM (K562): 105% | growth at 10 µM (HCT-15): 59.2% | growth at 10 µM (HCC 2998): 108% | growth at 10 µM (SK-MEL-5): 93% | growth at 10 µM (OVCAR-8): 92.7% | growth at 10 µM (786-0): 106% | growth at 10 µM (SK-MEL-2): 98% | growth at 10 µM (NCI/ADR-RES): 98.3% | growth at 10 µM (UO-31): 75.8% | growth at 10 µM (NCI-H460): 107% | growth at 10 µM (SR): 82.6%
